Our source for the solubility values is patent publication US20100273789A1, “AMINOACYL PRODRUGS” (BAYER SCHERING PHARMA AKTIENGESELLSCHAFT, priority 2007, published 2010).

The data set in a line: Determination of the solubility. As to conditions: in water and physiological media. Type of data set: physicochemical. On the procedure:
The test substance is suspended in water or dilute hydrochloric acid (pH 4). This suspension is shaken at room temperature for 24 h. After ultracentrifugation at 224 000 g for 30 min, the supernatant is diluted with DMSO and analyzed by HPLC. A two-point calibration plot of the test compound in DMSO is used for quantification.
Agilent 1100 with DAD (G1315A), quat. pump (G1311A), autosampler CTC HTS PAL, degasser (G1322A) and column thermostat (G1316A); column: Zorbax Extend-C18 3.5μ; temperature: 40° C.; mobile phase A: water+5 ml of perchloric acid/liter, mobile phase B: acetonitrile; flow rate: 0.7 ml/min; gradient: 0-0.5 min 98% A, 2% B; ramp 0.5-4.5 min 10% A, 90% B; 4.5-6 min 10% A, 90% B; ramp 6.5-6.7 min 98% A, 2% B; 6.7-7.5 min 98% A, 2% B.

With `O=C(NC[C@H]1CN(c2ccc(N3CCOCC3=O)cc2F)C(=O)O1)c1ccc(Cl)s1` [compound (A), 5-Chloro-N-({(5S)-3-[2-fluoro-4-(3-oxomorpholin-4-yl)phenyl]-2-oxo-1,3-oxazolidin-5-yl}methyl)thiophene-2-carboxamide], the solubility result is “limited solubility”.
